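Exposure lasted 48 hours, with cells grown in 96-well plates and compounds tested at five concentrations. TGI is the concentration that stops growth completely.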
Key:
Experiment in all cases: NCI-60 cell line screen, 48 h
A498 renal = tested on: A498 renal
SK-OV-3 ovarian = tested on: SK-OV-3 ovarian
A549 NSCLC = tested on: A549 NSCLC
PC-3 prostate = tested on: PC-3 prostate
MALME-3M melanoma = tested on: MALME-3M melanoma
SW-620 colon = tested on: SW-620 colon
HS 578T breast = tested on: HS 578T breast
NCI/ADR-RES ovarian = tested on: NCI/ADR-RES ovarian
UACC-62 melanoma = tested on: UACC-62 melanoma
SF-539 CNS = tested on: SF-539 CNS
MOLT-4 leukemia = tested on: MOLT-4 leukemia
K-562 leukemia = tested on: K-562 leukemia
HCC-2998 colon = tested on: HCC-2998 colon
HT29 colon = tested on: HT29 colon
DU-145 prostate = tested on: DU-145 prostate
NCI-H226 lung = tested on: NCI-H226 lung
OVCAR-8 ovarian = tested on: OVCAR-8 ovarian
MDA-MB-435 = tested on: MDA-MB-435
HL-60(TB) leukemia = tested on: HL-60(TB) leukemia
TK-10 renal = tested on: TK-10 renal
NCI-H522 lung = tested on: NCI-H522 lung
SNB-19 CNS = tested on: SNB-19 CNS
SR leukemia = tested on: SR leukemia
SN12C renal = tested on: SN12C renal
CCRF-CEM leukemia = tested on: CCRF-CEM leukemia
SNB-75 CNS = tested on: SNB-75 CNS
HCT-116 colon = tested on: HCT-116 colon
MDA-MB-231 breast = tested on: MDA-MB-231 breast
SF-268 CNS = tested on: SF-268 CNS
U251 CNS = tested on: U251 CNS
COLO 205 colon = tested on: COLO 205 colon
SK-MEL-28 melanoma = tested on: SK-MEL-28 melanoma
HCT-15 colon = tested on: HCT-15 colon
SK-MEL-2 melanoma = tested on: SK-MEL-2 melanoma
MDA-N = tested on: MDA-N
NCI-H460 lung = tested on: NCI-H460 lung
M14 melanoma = tested on: M14 melanoma
SF-295 CNS = tested on: SF-295 CNS
CAKI-1 renal = tested on: CAKI-1 renal
OVCAR-3 ovarian = tested on: OVCAR-3 ovarian
LOX IMVI melanoma = tested on: LOX IMVI melanoma
KM12 colon = tested on: KM12 colon
ACHN renal = tested on: ACHN renal
EKVX NSCLC = tested on: EKVX NSCLC
UACC-257 melanoma = tested on: UACC-257 melanoma
UO-31 renal = tested on: UO-31 renal
MCF7 breast = tested on: MCF7 breast
SK-MEL-5 melanoma = tested on: SK-MEL-5 melanoma
OVCAR-4 ovarian = tested on: OVCAR-4 ovarian
HOP-62 NSCLC = tested on: HOP-62 NSCLC
786-0 renal = tested on: 786-0 renal
NCI-H23 lung = tested on: NCI-H23 lung
RPMI-8226 leukemia = tested on: RPMI-8226 leukemia
IGROV1 ovarian = tested on: IGROV1 ovarian
OVCAR-5 ovarian = tested on: OVCAR-5 ovarian
RXF 393 renal = tested on: RXF 393 renal

Measured: TGI

COC1(OC)CCCc2c1no[n+]2[O-]
> 100 µM: all assays above
